Laboratory results published in patent US10391068B2 (priority 2012, dated 2019).
“And” between values parts separate entries of the source, which are not always exact repeats. Equal entries are not always repeated. “Also recorded” adds a separate entry of the source. Where two headings read alike, the source gives them in different places.

Legend:
[1] = target: recombinant mouse PrP^C (Mus musculus, UniProt P04925); experiment: biochemical; format: binding
[2] = target: PrP^23-230 (Mus musculus, UniProt P04925); format: binding
[3] = target: T1, moPrP (23-230) (Mus musculus, UniProt P04925); format: biochemical
[4] = target: Aβ oligomers binding to PrP^C (Mus musculus, UniProt P04925); experiment: biochemical
[5] = target: human recombinant PrP^C (Homo sapiens, UniProt P04156); experiment: biochemical; format: binding
[6] = format: binding; settings: read-out: KD (did not bind detectably)
[7] = target: T2, N-PrP (23-111) (Mus musculus, UniProt P04925); format: binding
[8] = target: C-PrP (120-230) (Mus musculus, UniProt P04925); format: binding
[9] = target: recombinant C-PrP (Mus musculus, UniProt P04925); experiment: biochemical; format: binding
[10] = tested on: moPrP (23-230); format: binding, mouse
[11] = target: Aβ oligomers binding to PrP^C (Homo sapiens, UniProt P04156)
[12] = tested on: Aβ oligomer binding to PrP-expressing HEK cells; format: cell-based
[13] = target: Aβ oligomers binding to N-PrP (Mus musculus, UniProt P04925)
[14] = target: T2, N-PrP (23-111); format: biochemical
[15] = target: T3, N-PrP / C-PrP interaction (Mus musculus, UniProt P04925); format: biochemical
[16] = target: T3, N-PrP / C-PrP interaction; format: binding
[17] = tested on: Aβ oligomer inhibition of LTP in hippocampal slices; format: cell-based, mice
[18] = tested on: postnatal mouse hippocampal neurons treated with Aβ oligomers; format: cell-based
[19] = target: T1, moPrP (23-230)
[20] = tested on: PrP^Sc replication
[21] = target: bovine serum albumin (Bos taurus, UniProt P02769); experiment: biochemical
Sequence of bovine serum albumin (P02769 25-607): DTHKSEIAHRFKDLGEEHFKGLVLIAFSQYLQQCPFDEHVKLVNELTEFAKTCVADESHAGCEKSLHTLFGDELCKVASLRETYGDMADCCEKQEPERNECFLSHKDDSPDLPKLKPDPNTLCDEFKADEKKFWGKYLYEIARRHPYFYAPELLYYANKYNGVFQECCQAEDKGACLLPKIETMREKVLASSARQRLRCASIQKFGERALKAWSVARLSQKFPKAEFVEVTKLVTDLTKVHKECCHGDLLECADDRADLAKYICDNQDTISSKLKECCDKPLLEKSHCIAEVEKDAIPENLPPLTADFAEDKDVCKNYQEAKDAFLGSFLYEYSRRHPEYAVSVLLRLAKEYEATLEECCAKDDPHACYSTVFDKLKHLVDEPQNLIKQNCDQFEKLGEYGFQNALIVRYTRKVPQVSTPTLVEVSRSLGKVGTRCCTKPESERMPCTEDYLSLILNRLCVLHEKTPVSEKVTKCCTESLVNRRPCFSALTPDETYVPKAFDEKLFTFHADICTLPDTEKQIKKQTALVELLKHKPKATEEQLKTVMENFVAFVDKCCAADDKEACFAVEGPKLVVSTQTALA

[22] = target: Recombinant C-PrP (residues 120-230) (Mus musculus, UniProt P04925); format: binding
[23] = target: myoglobin (Equus caballus, UniProt P68082); format: binding
Sequence of myoglobin (P68082 2-154): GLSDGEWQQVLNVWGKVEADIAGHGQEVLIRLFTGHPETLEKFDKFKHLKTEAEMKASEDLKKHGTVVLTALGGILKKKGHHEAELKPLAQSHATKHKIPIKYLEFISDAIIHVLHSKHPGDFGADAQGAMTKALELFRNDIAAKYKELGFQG

[24] = target: BSA (Bos taurus, UniProt P02769); format: binding

## O[C@@H]1[C@H](O)[C@H](O)/C(=N\NC(=S)NCc2ccc(F)cc2)[C@H](O)[C@H]1O [DS211]
[1]
  Kd: 62.3 µM
  binding to PrP^C by SPR (in words): bind to PrP^C

## CC(C)(C)NC(=S)N/N=C1\[C@@H](O)[C@@H](O)[C@@H](O)[C@H](O)[C@H]1O [DS210]
[1]
  Kd: 63.1 µM
  binding to PrP^C by SPR (in words): bind to PrP^C

## FC(F)(F)c1cccc(COn2c(-c3ccccc3)nc3ncccc32)c1 [DS15, reference compound]
[2]
  binding to PrP^C by EqD (in words): No binding was observed
[3]
  Trp fluorescence of full-length PrP (in words): did not produce any change in Trp fluorescence; also recorded: did not alter the trp fluorescence

## O=C1OC(C(O)C(O)CO)C(O)C1O (stereo not drawn) [DS86, 3R,4S-dihydroxy-5S-(1,2,3-trihydroxypropyl)dihydrofuran-2(3H)-one]
[1]
  binding to PrP^C by SPR (in words): lower affinity; also recorded: also bind to PrP^C

## O=C(CN1CCCC1)Nc1ccc(Cc2ccc(NC(=O)CN3CCCC3)cc2)cc1 [GN8, N,N′-(methylenedi-4,1-phenylene)bis[2-(1-pyrrolidinyl)acetamide], reference compound]
[1]
  Kd: > 1000 µM
  binding to PrP^C by SPR (in words): does not bind; also recorded: no detectable binding; also recorded: failed to bind; also recorded: failed to detect binding
[2]
  binding to PrP^C by EqD (in words): No binding was observed; also recorded: failed to detect binding
[4]
  inhibition of Aβ oligomer binding to PrP^C by SPR (in words): does not bind PrPC in the SPR assay used for studying the binding of PrPC ligands to PrPC or inhibit binding of Aβ oligomers to PrP^C

## NC(=S)NN=C1C(O)C(O)C(O)C(O)C1O [DS26, 2-(2R,3S,5R,6S-pentahydroxycyclohexylidene)hydrazinecarbothioamide]
[1]
  DS26 remained bound to PrP^C after washing: 70%
  Kd: 0.571 µM
  binding to PrP^C by SPR (in words): sub-micromolar affinity; also recorded: higher affinity; also recorded: stereospecific; also recorded: bound; also recorded: binds; also recorded: bind to PrP^C
  koff: 0.00014 s⁻¹
  kon: 245 M⁻¹ s⁻¹
  rate of dissociation (Koff) from PrP^C (in words): particularly slow rate of dissociation; also recorded: remarkably slow dissociation kinetics
[1]; read-out: half-life for the bound state
  residence time: 83 min
[1]; read-out: koff rate
  koff: 0.00014 s⁻¹
[1]; read-out: kon rate
  kon: 245 M⁻¹ s⁻¹
[5]
  Kd: 0.571 µM
  binding to human versus mouse PrP^C (in words): identical affinity
[6]
  Kd: > 1000 µM
[7]
  binding to N-PrP (in words): failed to bind
[8]
  binding to C-PrP (in words): bound; also recorded: binds
[9]
  Kd: 0.3 µM
  competition with / displacement of DS104 (in words): able to displace DS104; also recorded: competed with DS104
[2]
  binding to PrP^C by EqD (in words): retained by PrP^C in the sample chamber
  decrease in the concentration of compound in the assay chamber: 75%
[10]
  difference in Tm versus PrP^C alone: 2.11 °C
  melting temperature (Tm) of PrP in presence of compound: 68.93±0.1 °C and 68.9 °C
[4]
  IC50: ~15 µM
  inhibition of Aβ oligomer binding to PrP^C by SPR (in words): inhibited binding of Aβ oligomers to PrP^C in a dose-dependent fashion; also recorded: decreased the binding of Aβ oligomers to PrP^C in a dose-dependent manner; also recorded: prevents binding of Aβ oligomers
  reduction of the Aβ oligomer-PrP^C interaction: more than 90%
[11]
  release of Aβ oligomers pre-bound to PrP^C (in words): unable to release Aβ that was already attached to PrP^C; also recorded: unable to dislodge Aβ oligomers
[12]
  estimated IC50 on cells (in words): higher than the corresponding value observed by SPR and ELISA
  inhibition of Aβ oligomer binding to PrP^C on cells (in words): dose-dependent inhibition of Aβ binding; also recorded: inhibits binding of Aβ oligomers to PrP^C on cells
[13]
  inhibition of Aβ oligomer binding to N-PrP (in words): failed to inhibit the binding of Aβ oligomers to N-PrP
[3]
  Trp fluorescence of full-length PrP (in words): dose-dependent quenching; also recorded: quenched the trp fluorescence in a dose-dependent manner
[14]
  Trp fluorescence of N-PrP (in words): unaffected; also recorded: did not alter the trp fluorescence
[15]
  co-immunoprecipitation of C-PrP with N-PrP (in words): Co-immunoprecipitation of the two PrP fragments occurred only after incubation with DS26; also recorded: C-PrP was immunoprecipitated with N-PrP only in the presence of DS26
[16]
  N-PrP binding to C-PrP by SPR (in words): N-PrP interacted with C-PrP only after pre-injection of DS26; also recorded: N-PrP bound to C-PrP that had been pre-treated with DS26
[17]
  LTP after Aβ oligomer exposure (in words): significantly reversed the inhibitory effect of Aβ oligomers on LTP; also recorded: significantly (*p<0.05) enhances LTP after Aβ exposure
  LTP with compound alone (in words): No change in LTP was detected
[18]
  levels of synaptic markers after Aβ oligomers (in words): significantly rescued the levels of all the synaptic markers; also recorded: blocks the toxic effects of Aβ oligomers
  levels of synaptic markers with compound alone (in words): not significantly altered
[19]
  far-UV CD spectrum of PrP^C (in words): did not detectably alter the CD spectrum of PrP^C; also recorded: does not affect the far-UV CD spectrum
[20]
  PrP^Sc replication in vitro (in words): partially inhibits
[21]
  Kd: > 1000 µM

## O=C(O)c1cc(NC(=S)NN=C2C(O)C(O)C(O)C(O)C2O)ccc1-c1c2ccc(=O)cc-2oc2cc(O)ccc12 [DS104, (Z)—N-(3′,6′-dihydroxy-3-oxo-3H-spiro[isobenzofuran-1,9′-xanthen]-5-yl)-2-((2R,3R,4S,5R,6S)-2,3,4,5,6-pentahydroxycyclohexylidene)hydrazinecarbothioamide]
[22]
  Kd: 4 µM
[23]
  binding to myoglobin by FP: not detected
[24]
  binding to BSA by FP: not detected

## OC[C@@H](O)[C@H](O)[C@@H](O)c1nnn[nH]1 [DS40, (1S,2R,3R)-1-(1H-tetrazol-5-yl)butane-1,2,3,4-tetrol]
[1]
  binding to PrP^C by SPR (in words): lower affinity; also recorded: bind to PrP^C
  rate of dissociation (Koff) from PrP^C (in words): particularly slow rate of dissociation
[5]
  Kd: 0.801 µM
  binding to human versus mouse PrP^C (in words): identical affinity
[7]
  binding to N-PrP (in words): failed to bind
[8]
  binding to C-PrP (in words): bound
[9]
  competition with / displacement of DS104 (in words): able to displace DS104; also recorded: competed with DS104

## 2R,3S,4S,5S,6R)-2-(hydroxymethyl)-6-[β-hydroxyphenyl)amino]tetrahydro-2H-pyran-3,4,5-triol [DS5]
[1]
  binding to PrP^C by SPR (in words): lower affinity; also recorded: also bind to PrP^C
[9]
  competition with / displacement of DS104 (in words): able to displace DS104; also recorded: competed with DS104

## COc1ccc(CCNC(=S)N/N=C2\[C@@H](O)[C@@H](O)[C@@H](O)[C@H](O)[C@H]2O)cc1OC [DS207]
[1]
  Kd: 64.8 µM
  binding to PrP^C by SPR (in words): bind to PrP^C
